Here are results for ten compounds from patent publication US6028195A, “Piperazine derivatives and process for the preparation thereof” (Samjin Pharmaceutical Co., Ltd., priority 1996, dated 2000).

Values after ≈ are worked out from the molar mass of the structure shown. Read-outs that look alike come from different tables or passages of the source.

Common to all, as to type: cell-based
Holding throughout (settings): Homo sapiens

The test system of one test is SKMEL-2 (human melanoma). Kind of test: SRB assay, in vitro antitumor effect against SKMEL-2. How it is done: (§1) In vitro antitumor effect against human tumor cell lines.
(§2) b. 5×10^3 ~2×10^4 cells were added into each well of 96-well plate and cultured in 5% CO2 incubator, at 37° C., for 24 hours.
(§3) c. Each sample drug was dissolved in a little DMSO and diluted with the used medium to a prescribed concentration for experiments, wherein the final concentration of DMSO was controlled below 0.5%.
(§4) d. Medium of each well cultured for 24 hours as above b. was removed by aspiration. Each 200 μl of drug samples prepared in c. was added into each well and the wells were cultured for 48 hours. Tz(time zero) plates were collected at the point of time drugs were added.
(§5) e. According to the SRB assay method, cell fixing with TCA, staining with 0.4% SRB solution, washing with 1% acetic acid and elution of dye with 10 mM Tris solution were carried out on Tz plates and culture-ended plates, and then, OD values were measured at 520 nm.
(§6) a. Time zero(Tz) value was determined with measuring the SRB protein value at the point of time drugs were added.
(§7) b. Control value(C) was determined with the OD value of an well untreated with drug.
(§8) c. Drug-treated test value(T) was determined with the OD value of drug-treated well.
(§9) d. Effects of drugs were estimated with growth stimulation, net growth inhibition, net killing etc. calculated from Tz, C and T.
(§10) e. If T≥Tz, cellular response function was calculated by 100×(T-Tz)/(C-Tz), and if T<Tz, by 100×(T-Tz)/Tz.

For the next test, the system named is HCT-15 (human colon). Kind of test: SRB assay, in vitro antitumor effect against HCT-15. The protocol: as §1, §2, §3, §4, §5, §6, §7, §8, §9, §10
A general note: Sulforhodamine B stains cellular protein and so reports cell mass.

The subject of the next test is XF 498 (human CNS). Kind of test: SRB assay, in vitro antitumor effect against XF 498. The protocol: as §1, §2, §3, §4, §5, §6, §7, §8, §9, §10
Test [1] concerns A549 (human non-small lung cell). As to the kind of experiment: SRB assay, in vitro antitumor effect against A549. How it is done:
as §1, §2, §3, §4, §5, §6, §7, §8, §9, §10

The test system of another test is SKOV-3 (human ovarian). Kind of test: SRB assay, in vitro antitumor effect against SKOV-3. How it is done:
as §1, §2, §3, §4, §5, §6, §7, §8, §9, §10

Setting [2] is: SK-MEL-2, 48 hours, read-out: ED50 (the source's name).
[3] abbreviates: HCT 15, 48 hours, read-out: ED50 (the source's name).
[4] abbreviates: XF498, XF-498, 48 hours, read-out: ED50 (the source's name).
Where [5] appears, read: A549, 48 hours, read-out: ED50 (the source's name).
Setting [6] is: SK-OV-3, 48 hours, read-out: ED50 (the source's name).

Consider `COc1nc(C)c(C(C)=O)cc1NC(=O)N1CCN(c2cc(C)cc(C)c2)CC1` [Example 47, 1-[(5-Acetyl-2-methoxy-6-methylpyridin-3-yl)aminocarbonyl]-4-(3,5-dimethylphenyl)piperazine], for which the IC50 in the test with SKMEL-2 (human melanoma) (setting [2]) was 0.47 µg/mL (≈ 1.19 µM); in the test with HCT-15 (human colon) (setting [3]), 0.81 µg/mL (≈ 2.04 µM); with XF 498 (human CNS) (setting [4]) it was 0.64 µg/mL (≈ 1.61 µM); in test [1] (setting [5]), 0.92 µg/mL (≈ 2.32 µM); in the test with SKOV-3 (human ovarian) (setting [6]), 0.62 µg/mL (≈ 1.56 µM).

`COc1cc(OC)cc(N2CCN(C(=O)N(c3cc(C)c(C)nc3OC)C(C)C)CC2)c1` [Example 134, 1-[N-Isopropyl-N-(5,6-dimethyl-2-methoxypyridin-3-yl)aminocarbonyl]-4-(3,5-dimethoxyphenyl)piperazine]: the IC50 is 0.0086 µg/mL (≈ 0.0194 µM) with SKMEL-2 (human melanoma) (setting [2]); 0.0065 µg/mL (≈ 0.0147 µM) with HCT-15 (human colon) (setting [3]); 0.002 µg/mL (≈ 0.00452 µM) with XF 498 (human CNS) (setting [4]); 0.0009 µg/mL (≈ 0.00203 µM) in test [1] (setting [5]); 0.0091 µg/mL (≈ 0.0206 µM) with SKOV-3 (human ovarian) (setting [6]).

As to `COc1cc(OC)cc(N2CCN(C(=O)Nc3cc(C(C)=O)c(C)nc3OC)CC2)c1` [Example 46, 1-[(5-Acetyl-2-methoxy-6-methylpyridin-3-yl)amninocarbonyl]-4-(3,5-dimethoxyphenyl)piperazine], the IC50 stood at 0.08 µg/mL (≈ 0.187 µM) in the test with SKMEL-2 (human melanoma) (setting [2]); 0.16 µg/mL (≈ 0.373 µM) with HCT-15 (human colon) (setting [3]); 0.14 µg/mL (≈ 0.327 µM) in the test on XF 498 (human CNS) (setting [4]); 0.21 µg/mL (≈ 0.49 µM) in test [1] (setting [5]); 0.12 µg/mL (≈ 0.28 µM) in the test with SKOV-3 (human ovarian) (setting [6]).

`CCc1cc(NC(=O)N2CCN(c3ccccc3SC)CC2)c(OC)nc1C` [Example 4, 1-[(5-Ethyl-6-methyl-2-methoxypyridin-3-yl)aminocarbonyl]-4-(2-methylthiophenyl)piperazine]: the IC50 with SKMEL-2 (human melanoma) (setting [2]) was 0.007 µg/mL (≈ 0.0175 µM); in the test on HCT-15 (human colon) (setting [3]) it was 0.093 µg/mL (≈ 0.232 µM); with XF 498 (human CNS) (setting [4]) it was 0.94 µg/mL (≈ 2.35 µM); in test [1] (setting [5]), 0.007 µg/mL (≈ 0.0175 µM); with SKOV-3 (human ovarian) (setting [6]) it was 0.022 µg/mL (≈ 0.0549 µM).

In the case of `COc1nc(C)c(C(C)=O)cc1N(C)C(=O)N1CCN(c2cc(C)cc(C)c2)CC1` [Example 151, 1-[N-(5-Acetyl-2-methoxy-6-methylpyridin-3-yl)-N-methylaminocarbonyl]-4-(3,5-dimethylphenyl)piperazine], the IC50 in the test on SKMEL-2 (human melanoma) (setting [2]) is 0.007 µg/mL (≈ 0.0171 µM); with HCT-15 (human colon) (setting [3]), 0.037 µg/mL (≈ 0.0901 µM); with XF 498 (human CNS) (setting [4]), 0.007 µg/mL (≈ 0.0171 µM); in test [1] (setting [5]) it was 0.004 µg/mL (≈ 0.00974 µM); in the test with SKOV-3 (human ovarian) (setting [6]), 0.008 µg/mL (≈ 0.0195 µM).

Turning to `CCc1nc(OC)c(NC(=O)N2CCN(c3cccc(O)c3)CC2)cc1C` [Example 14, 1-[(6-Ethyl-2-methoxy-5-methylpyridin-3-yl)aminocarbonyl]-4-(3-hydroxyphenyl)piperazine], the IC50 in the test with SKMEL-2 (human melanoma) (SK-MEL-2, 48 h, read-out: ED50) is 0.001 µg/mL (≈ 0.0027 µM); in the test on HCT-15 (human colon) (setting [3]), 0.007 µg/mL (≈ 0.0189 µM); in the test on XF 498 (human CNS) (setting [4]), 0.16 µg/mL (≈ 0.432 µM); in test [1] (setting [5]), 0.022 µg/mL (≈ 0.0594 µM); in the test with SKOV-3 (human ovarian) (setting [6]), 0.02 µg/mL (≈ 0.054 µM).

For `CCCc1cc(NC(=O)N2CCN(c3cc(C)cc(C)c3)CC2)c(OC)nc1C` [Example 9, 1-[(2-Methoxy-6-methyl-5-propylpyridin-3-yl)aminocarbonyl]-4-(3,5-dimethylphenyl)piperazine], the IC50 is 0.21 µg/mL (≈ 0.53 µM) with SKMEL-2 (human melanoma) (setting [2]); 0.11 µg/mL (≈ 0.277 µM) in the test with HCT-15 (human colon) (setting [3]); 0.11 µg/mL (≈ 0.277 µM) in the test with XF 498 (human CNS) (setting [4]); 0.15 µg/mL (≈ 0.378 µM) in test [1] (setting [5]); 0.07 µg/mL (≈ 0.177 µM) in the test on SKOV-3 (human ovarian) (setting [6]).

As to `COc1cc(C)c(C)cc1NC(=O)N1CCN(c2c(C)c(C)cc(C)c2C)CC1` [Example 174, 1-[(4,5-Dimethyl-2-methoxyphenyl)aminocarbonyl]-4-(2,3,5,6-tetramethylphenyl)piperazine], the IC50 with SKMEL-2 (human melanoma) (setting [2]) was 0.27 µg/mL (≈ 0.683 µM); with HCT-15 (human colon) (setting [3]) it was 0.33 µg/mL (≈ 0.834 µM); in the test on XF 498 (human CNS) (setting [4]), 0.49 µg/mL (≈ 1.24 µM); in test [1] (setting [5]), 0.54 µg/mL (≈ 1.37 µM); in the test on SKOV-3 (human ovarian) (setting [6]) it was 0.56 µg/mL (≈ 1.42 µM).

Turning to `COc1cccc2c1C(=O)c1c(O)c3c(c(O)c1C2=O)C[C@@](O)(C(=O)CO)C[C@@H]3O[C@H]1C[C@H](N)[C@H](O)[C@H](C)O1` [Adriamycin, reference compound], the IC50 in the test with SKMEL-2 (human melanoma) (SK-MEL-2, 48 h, read-out: ED50) was found to be 0.0108 µg/mL (≈ 0.0199 µM); with HCT-15 (human colon) (HCT-15, 48 h, read-out: ED50), 1.67 µg/mL (≈ 3.07 µM); with XF 498 (human CNS) (XF498, 48 h, read-out: ED50), 0.025 µg/mL (≈ 0.046 µM); in test [1] (A549, 48 h, read-out: ED50), 0.0168 µg/mL (≈ 0.0309 µM); with SKOV-3 (human ovarian) (SK-OV-3, 48 h, read-out: ED50), 0.0176 µg/mL (≈ 0.0324 µM).

In the case of `COc1nc(C)c(C)cc1NC(=S)N1CCN(c2cc(F)cc(F)c2)CC1` [Example 23, 1-[(5,6-Dimethyl-2-methoxypyridin-3-yl)aminothiocarbonyl]-4-(3,5-difluorophenyl)piperazine], the IC50 in the test on SKMEL-2 (human melanoma) (setting [2]) stood at 0.09 µg/mL (≈ 0.229 µM); in the test with HCT-15 (human colon) (setting [3]), 0.05 µg/mL (≈ 0.127 µM); in the test with XF 498 (human CNS) (setting [4]), 0.092 µg/mL (≈ 0.234 µM); in test [1] (setting [5]), 0.09 µg/mL (≈ 0.229 µM); in the test on SKOV-3 (human ovarian) (setting [6]), 0.04 µg/mL (≈ 0.102 µM).
